Measurements taken from patent US10975068B2, “6-aminopyridin-3-yl thiazoles as modulators of RORγT” (Janssen Pharmaceutica NV, priority 2016, dated 2021).
Read-outs that look alike come from different tables or passages of the source.

Experiments:
[1] = molecular target: full-length human RORγt (Homo sapiens (Human), UniProt P51449); experiment: RORγt (full-length human) reporter assay, Conditions B or C; type: cell-based; conditions: for RORγt (FL) Reporter Assay B or C, % inhibition (value marked *): marked *: footnote not given
Chain of full-length human RORγt (P51449 other isoform, or with tags, fused parts or gaps): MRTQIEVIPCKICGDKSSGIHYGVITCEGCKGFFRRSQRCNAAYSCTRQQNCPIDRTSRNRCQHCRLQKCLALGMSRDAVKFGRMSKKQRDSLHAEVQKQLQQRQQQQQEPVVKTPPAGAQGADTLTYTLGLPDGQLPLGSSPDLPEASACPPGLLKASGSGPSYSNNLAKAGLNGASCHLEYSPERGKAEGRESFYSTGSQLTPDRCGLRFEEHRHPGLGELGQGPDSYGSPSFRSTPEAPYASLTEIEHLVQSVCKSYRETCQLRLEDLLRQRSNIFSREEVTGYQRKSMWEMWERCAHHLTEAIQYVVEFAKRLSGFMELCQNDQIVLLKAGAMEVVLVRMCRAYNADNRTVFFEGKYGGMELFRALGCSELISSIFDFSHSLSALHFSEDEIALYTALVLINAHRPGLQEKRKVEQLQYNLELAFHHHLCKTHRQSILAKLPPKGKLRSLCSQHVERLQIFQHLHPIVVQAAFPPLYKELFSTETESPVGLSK
Summary of the method: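 HEK293T cells transiently co-transfected with GAL4-DBD–full-length human RORγt (nt 142-1635, NM_001001523.1) plus GAL4-firefly and CMV-Renilla luciferase reporters; compounds added 4-6 h post-transfection for 16-20 h in 1.3% FBS, 0.1% DMSO. Firefly signal normalized to DMSO and saturating reference compound, then to Renilla; IC50 from concentration plots.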

[2] = molecular target: human RORγt ligand binding domain (RORγt LBD) (Homo sapiens (Human), UniProt P51449); experiment: RORγt ThermoFluor® assay (thermal shift binding); conditions: read-out: ThermoFluor® Assay, Kd
Chain of human RORγt ligand binding domain (RORγt LBD) (P51449 other isoform, or with tags, fused parts or gaps): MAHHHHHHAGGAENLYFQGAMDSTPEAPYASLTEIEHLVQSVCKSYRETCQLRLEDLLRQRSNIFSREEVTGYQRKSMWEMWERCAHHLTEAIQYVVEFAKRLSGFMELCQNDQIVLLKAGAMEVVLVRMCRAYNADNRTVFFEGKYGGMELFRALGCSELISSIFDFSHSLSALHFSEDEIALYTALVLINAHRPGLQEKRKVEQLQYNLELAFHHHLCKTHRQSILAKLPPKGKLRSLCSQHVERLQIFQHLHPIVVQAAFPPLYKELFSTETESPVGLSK
Summary of the method: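 His-tagged human RORγt LBD (0.065 mg/mL) with 60 μM 1,8-ANS in 100 mM Hepes pH 7.0, 10 mM NaCl, 2.5 mM GSH, 0.002% Tween-20 was heated at 1 °C/min.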

[3] = Conditions B or C, read-out: RORγt (FL) Reporter Assay B or C, IC50
[4] = RORγt (FL) Reporter Assay B or C, IC50 (μM), Conditions B or C

RORγt (FL) Reporter Assay B or C, % inhibition (value marked ***) ([1]; Conditions B or C, marked ***: footnote not given)	IC50 [1, 3]	Kd [2]	RORγt (FL) Reporter Assay B or C, % inhibition (value marked *) ([1]; Conditions B or C)	SMILES	IC50 [1, 4]	inhibition at 6 µM ([1]; read-out: RORγt (FL) Reporter Assay B or C, % inhibition @ 6 μM, Conditions B or C, @ 6 μM)
94*** %	0.12 µM	9.4 nM	–	C[C@H]1CCCN1C(=O)c1nc(C(=O)NCC(C)(C)O)sc1-c1cnc(NC2(C(F)(F)F)CC2)cc1C(F)(F)F [Example 147, (S)—N-(2-Hydroxy-2-methylpropyl)-4-(2-methylpyrrolidine-1-carbonyl)-5-(4-(trifluoromethyl)-6-((1-(trifluoromethyl)cyclopropyl)amino)pyridin-3-yl)thiazole-2-carboxamide]	–	–
–	0.025 µM	6.4 nM	95* %	C[C@H](CO)NC(=O)c1nc(C(=O)N2CCC[C@@H]2C)c(-c2cnc(NC(C)(C)C)cc2C(F)F)s1 [Example 148, 5-(6-(tert-Butylamino)-4-(difluoromethyl)-3-pyridyl)-N-((1R)-2-hydroxy-1-methyl-ethyl)-4-((2S)-2-methylpyrrolidine-1-carbonyl)thiazole-2-carboxamide]	–	–
–	0.1 µM	20 nM	108* %	C[C@H]1CCCN1C(=O)c1nc(C(=O)N2CC(C)(O)C2)sc1-c1cnc(NC(C)(C)C)cc1C(F)F [Example 149, [5-[6-(tert-Butylamino)-4-(difluoromethyl)-3-pyridyl]-2-(3-hydroxy-3-methyl-azetidine-1-carbonyl)thiazol-4-yl]-[(2S)-2-methylpyrrolidin-1-yl]methanone]	–	–
–	0.2 µM	1.8 nM	106* %	C[C@H]1CC(F)(F)CN1C(=O)c1nc(C(=O)NCC(C)(C)O)sc1-c1cnc(NC2(C)CCC2)cc1C(F)F [Example 168]	–	–
–	0.055 µM	5.8 nM	95* %	C[C@H]1CCCN1C(=O)c1nc(C(=O)NCC(C)(C)O)sc1-c1cnc(NC2(C)CCC2)cc1C(F)F [Example 173]	–	–
–	0.0066 µM	0.97 nM	117* %	C[C@H]1CC(F)(F)CN1C(=O)c1nc(C(=O)NCC(C)(C)O)sc1-c1cnc(NC(C2CC2)C2CC2)cc1C(F)F [Example 177, (S)-5-(6-((Dicyclopropylmethyl)amino)-4-(difluoromethyl)pyridine-3-yl)-4-(4,4-difluoro-2-methylpyrrolidine-1-carbonyl)-N-(2-hydroxy-2-methylpropyl)thiazole-2-carboxamide]	–	–
–	0.018 µM	2.2 nM	105* %	C[C@H]1CCCN1C(=O)c1nc(C(=O)NCC(C)(C)O)sc1-c1cnc(NC(C2CC2)C2CC2)cc1C(F)F [Example 179, (S)-5-(6-((Dicyclopropylmethyl)amino)-4-(difluoromethyl)pyridine-3-yl)-N-(2-hydroxy-2-methylpropyl)-4-(2-methylpyrrolidine-1-carbonyl)thiazole-2-carboxamide]	–	–
–	0.14 µM	6.8 nM	85* %	C[C@H](Nc1cc(C(F)F)c(-c2sc(C(=O)NC3CCS(=O)(=O)CC3)nc2C(=O)N2CCC[C@@H]2C)cn1)C(F)(F)F [Example 187, 5-(4-(Difluoromethyl)-6-(((S)-1,1,1-trifluoropropan-2-yl)amino)pyridine-3-yl)-N-(1,1-dioxidotetrahydro-2H-thiopyran-4-yl)-4-((S)-2-methylpyrrolidine-1-carbonyl)thiazole-2-carboxamide]	–	–
–	0.54 µM	47 nM	85* %	C[C@H](Nc1cc(C(F)F)c(-c2sc(C(=O)N[C@H]3C[C@H](O)C3)nc2C(=O)N2CCC[C@@H]2C)cn1)C(F)(F)F [Example 188]	–	–

Further lines, the compound ahead of its results:

SMILES	RORγt (FL) Reporter Assay B or C, % inhibition (value marked ***) ([1]; Conditions B or C, marked ***: footnote not given)	IC50 [1, 3]	Kd [2]	RORγt (FL) Reporter Assay B or C, % inhibition (value marked *) ([1]; Conditions B or C)	IC50 [1, 4]	inhibition at 6 µM ([1]; read-out: RORγt (FL) Reporter Assay B or C, % inhibition @ 6 μM, Conditions B or C, @ 6 μM)
C[C@H](Nc1cc(C(F)(F)F)c(-c2sc(C(=O)N[C@@H]3COC[C@H]3O)nc2C(=O)N2C3CCC2CC3)cn1)C(F)(F)F [Example 150, 4-((1s,4s)-7-Azabicyclo[2.2.1]heptane-7-carbonyl)-N-((3R,4S)-4-hydroxytetrahydrofuran-3-yl)-5-(4-(trifluoromethyl)-6-(((1S)-2,2,2-trifluoro-1-methyl-ethyl)amino)-3-pyridyl)thiazole-2-carboxamide]	–	–	3.2 nM	111* %	0.035 µM	–
CC[C@H](Nc1cc(C(F)F)c(-c2sc(C(=O)N[C@H]3CC[C@H](O)C3)nc2C(=O)N2C3CCC2CC3)cn1)C(F)(F)F [Example 151]	–	0.015 µM	0.87 nM	104* %	–	–
CC[C@H](Nc1cc(C(F)F)c(-c2sc(C(=O)N[C@@H]3CC[C@@H](O)C3)nc2C(=O)N2C3CCC2CC3)cn1)C(F)(F)F [Example 152]	–	0.011 µM	0.88 nM	–	–	102%
CC[C@H](Nc1cc(C(F)F)c(-c2sc(C(=O)NC3CCOCC3)nc2C(=O)N2C3CCC2CC3)cn1)C(F)(F)F [Example 153]	–	0.052 µM	1.1 nM	98* %	–	–
CC[C@H](Nc1cc(C(F)F)c(-c2sc(C(=O)NC3CCS(=O)(=O)CC3)nc2C(=O)N2C3CCC2CC3)cn1)C(F)(F)F [Example 154]	–	0.098 µM	1 nM	99* %	–	–
CC[C@H](Nc1cc(C(F)(F)F)c(-c2sc(C(=O)N[C@@H]3COC[C@H]3O)nc2C(=O)N2C3CCC2CC3)cn1)C(F)(F)F [Example 155]	–	–	1.1 nM	103* %	0.0058 µM	–
CC[C@H](Nc1cc(C(F)(F)F)c(-c2sc(C(=O)N[C@H]3COC[C@@H]3O)nc2C(=O)N2C3CCC2CC3)cn1)C(F)(F)F [Example 156]	–	–	1 nM	102* %	0.044 µM	–
CC(Nc1cc(C(F)(F)F)c(-c2sc(C(=O)NCC(C)(C)O)nc2C(=O)N2CC(F)(F)C[C@@H]2C)cn1)C1CCC1 (stereo partly drawn) [Example 161, 5-(6-((1-Cyclobutylethyl)amino)-4-(trifluoromethyl)pyridine-3-yl)-4-((S)-4,4-difluoro-2-methylpyrrolidine-1-carbonyl)-N-(2-hydroxy-2-methylpropyl)thiazole-2-carboxamide]	–	0.02 µM	0.78 nM	106* %	–	–
CC[C@H](Nc1cc(C(F)(F)F)c(-c2sc(C(=O)N[C@@H]3COC[C@H]3O)nc2C(=O)N2CCC[C@@H]2C)cn1)C(F)(F)F [Example 170, N-((3R,4S)-4-Hydroxytetrahydrofuran-3-yl)-4-((2S)-2-methylpyrrolidine-1-carbonyl)-5-(4-(trifluoromethyl)-6-(((1S)-1-(trifluoromethyl)propyl)amino)-3-pyridyl)thiazole-2-carboxamide]	–	0.024 µM	1.9 nM	101* %	–	–
CC[C@H](Nc1cc(C(F)(F)F)c(-c2sc(C(=O)N[C@H]3COC[C@@H]3O)nc2C(=O)N2CCC[C@@H]2C)cn1)C(F)(F)F [Example 174, N-((3S,4R)-4-Hydroxytetrahydrofuran-3-yl)-4-((2S)-2-methylpyrrolidine-1-carbonyl)-5-(4-(trifluoromethyl)-6-(((1S)-1-(trifluoromethyl)propyl)amino)-3-pyridyl)thiazole-2-carboxamide]	–	0.025 µM	1.4 nM	106* %	–	–
CC(C)(O)CNC(=O)c1nc(C(=O)N2C3CCC2CC3)c(-c2cnc(NC(C3CC3)C3CC3)cc2C(F)F)s1 [Example 178, 4-((1s,4s)-7-Azabicyclo[2.2.1]heptane-7-carbonyl)-5-(6-((dicyclopropylmethyl)amino)-4-(difluoromethyl)pyridine-3-yl)-N-(2-hydroxy-2-methylpropyl)thiazole-2-carboxamide]	–	0.0055 µM	2 nM	102* %	–	–
[2H]C([2H])([2H])C(O)(CNC(=O)c1nc(C(=O)N2CCC[C@@H]2C)c(-c2cnc(NC(C)(C)C)cc2C(F)(F)F)s1)C([2H])([2H])[2H] [Example 180, (S)-5-(6-(tert-Butylamino)-4-(trifluoromethyl)pyridine-3-yl)-N-(2-hydroxy-2-(methyl-d3)propyl-3,3,3-d3)-4-(2-methylpyrrolidine-1-carbonyl)thiazole-2-carboxamide]	–	0.02 µM	1.8 nM	113* %	–	–
[2H]C([2H])(NC(=O)c1nc(C(=O)N2CCC[C@@H]2C)c(-c2cnc(NC(C)(C)C)cc2C(F)(F)F)s1)C(C)(C)O [Example 181, (S)-5-(6-(tert-Butylamino)-4-(trifluoromethyl)pyridine-3-yl)-N-(2-hydroxy-2-methylpropyl-1,1-d2)-4-(2-methylpyrrolidine-1-carbonyl)thiazole-2-carboxamide]	–	0.0085 µM	1.1 nM	112* %	–	–
C[C@H]1CC(F)(F)CN1C(=O)c1nc(C(=O)NC2COCC2O)sc1-c1cnc(NC2(C)CCC2)cc1C(F)(F)F (stereo partly drawn) [Example 182, 4-((S)-4,4-Difluoro-2-methylpyrrolidine-1-carbonyl)-N-(cis-4-hydroxytetrahydrofuran-3-yl)-5-(6-((1-methylcyclobutyl)amino)-4-(trifluoromethyl)pyridine-3-yl)thiazole-2-carboxamide]	–	0.0081 µM	0.12 nM	99* %	–	–
C[C@H]1CC(F)(F)CN1C(=O)c1nc(C(=O)N[C@H]2COC[C@@H]2O)sc1-c1cnc(NC2(C)CCC2)cc1C(F)(F)F [Example 186]	–	0.016 µM	0.18 nM	98* %	–	–
